# Results published in US12297188B2, “Crystalline forms of (S)-1-(1-acryloylpyrrolidin-3-yl)-3-((3,5-dimethoxyphenyl)ethynyl)-5-(methylamino)-1H-pyrazole-4-carboxamide” (Beijing InnoCare Pharma Tech Co., Ltd., priority 2019, dated 2025).
# “Also recorded” adds a separate entry of the source.
# Assays:
# [1] = test system: fibroblast growth factor receptor (FGFR); details: cited from earlier work
# [2] = Interconversion of Forms A-C (heating and slurry competition); assay type: physicochemical; details: for form obtained from slurry competition: equal amounts of Form A and B, isopropyl alcohol/water, aw=0~1, room temperature
# Description: The relationships among Forms A-C were investigated via heating and slurry competition experiments.
# [3] = Stability assessment on storage (XRPD and HPLC purity); assay type: physicochemical; details: for XRPD change after storage / purity change after storage / stability after storage: 25° C./60% RH and 40° C./75% RH (opened) one week
# Method: About 10 mg Form A of Compound I was added to each 1.5-mL glass vial and stored at (i) 80° C. (closed) for one day, or (ii) 25° C./60% RH and 40° C./75% RH (opened) for one week, and then analyzed for XRPD and HPLC purity.
# About 10 mg Form C of Compound I was added to each 1.5-mL glass vial and stored under 25° C./60% RH (FIG. 13) and 40° C./75% RH (opened, FIG. 14) for one week, and then analyzed for XRPD and HPLC purity.
# [4] = Thermogravimetric analysis (thermal stability); assay type: physicochemical
# Method: TGA is a method of thermal analysis in which the mass of a sample is measured over time as the temperature changes. TGA evaluates the thermal stability of a material.
# (§1) X-ray powder diffraction (XRPD) studies in the present disclosure were performed using a Bruker D8 ADVANCE X-ray powder diffractometer. The parameters of the XRPD method of Compound I were as follows: • X-ray reflection: Cu, Kα • Kα1 (Å): 1.540598; Kα2 (Å): 1.544426 • Kα2/Kα1 intensity ratio: 0.50 • Voltage: 40 kV • Current: 40 mA • Scanning range: from 3.0 to 40.0 degree • Differential scanning calorimetry (DSC) data in the present disclosure were acquired by a TA DSC250. The parameters of the DSC method of Compound I were as follows: • Heating rate: 10° C./min • Purging gas: nitrogen • Thermogravimetric analysis (TGA) data in the present disclosure were acquired by a TA TGA550. The parameters of the TGA method of Compound I were as follows: • Heating rate: 10° C./min • Purging gas: nitrogen • Dynamic vapor sorption (DVS) data in the present disclosure were acquired by a SMS Intrinsic DVS. The parameters of the DVS method of Compound I were as follows: • Temperature: 25° C. • Gas and flow rate: nitrogen, 200 mL/min • dm/dt: 0.002%/min • Relative humidity (RH) range: 0% RH-95% RH
# [5] = Equilibrium solubility in water; assay type: physicochemical; details: for solubility classification: water, room temperature, 24 hours
# [6] = Hygroscopicity assessment by DVS; assay type: physicochemical; details: for hygroscopicity / water uptake: DVS; for XRPD before and after DVS testing: DVS 0% RH-95% RH; for water uptake: 80% RH, 25° C.
# Method: as §1
# About 30 mg Form A of Compound I was assessed for hygroscopicity using a DVS analyzer, and tested by XRPD before and after DVS analysis. DVS is a gravimetric technique that measures how quickly and how much of a solvent is absorbed by a sample.
# About 30 mg Form C of Compound I was assessed for hygroscopicity using a DVS analyzer, and tested by XRPD before and after DVS analysis.
# [7] = 25° C./60% RH for 1 week (opened)
# [8] = 40° C./75% RH for 1 week (opened)
Compound,"Purity (%) [3, 7]","Purity (%) [3, 8]",Purity (%) ([3]; Day 0),weight loss (TGA) ([4]; heated to 180° C.),solubility classification [5],hygroscopicity [6],XRPD before and after DVS testing [6],water uptake [6],form obtained from slurry competition [2],further results
"C=CC(=O)N1CC[C@H](n2nc(C#Cc3cc(OC)cc(OC)c3)c(C(N)=O)c2NC)C1 [Compound I, (S)-1-(1-acryloylpyrrolidin-3-yl)-3-((3,5-dimethoxyphenyl)ethynyl)-5-(methylamino)-1H-pyrazole-4-carboxamide]",–,–,–,–,–,–,–,–,–,FGFR inhibition [1]: potent inhibitor
"C=CC(=O)N1CC[C@H](n2nc(C#Cc3cc(OC)cc(OC)c3)c(C(N)=O)c2NC)C1 [Form C, (S)-1-(1-acryloylpyrrolidin-3-yl)-3-((3,5-dimethoxyphenyl)ethynyl)-5-(methylamino)-1H-pyrazole-4-carboxamide]",96.91%,96.99%,96.83%,about 2.40%,almost insoluble or insoluble,moderately hygroscopic; also recorded: moderately hydgroscopic,did not change,5.44%,–,form conversion on heating ([2]; heating to 145° C. and subsequently cooling to room temperature): converted to Form A; XRPD change after storage [3]: little or no change; purity change after storage [3]: no significant purity change; stability after storage [3]: stable; solubility ([5]; after equilibrium in water at room temperature for 24 hours): 15.93 µg/mL
"C=CC(=O)N1CC[C@H](n2nc(C#Cc3cc(OC)cc(OC)c3)c(C(N)=O)c2NC)C1 [Form B, (S)-1-(1-acryloylpyrrolidin-3-yl)-3-((3,5-dimethoxyphenyl)ethynyl)-5-(methylamino)-1H-pyrazole-4-carboxamide]",–,–,–,–,–,–,–,–,gave Form A,"chemical stability [3]: chemically stable; physical stability ([3]; can be converted to Form A or Form C): not physically stable; weight loss by TGA ([4]; temperature not stated): about 2.42%; solubility thermodynamic ([5]; thermodynamic from solid, conditions not stated): 15.1 µg/mL"
"C=CC(=O)N1CC[C@H](n2nc(C#Cc3cc(OC)cc(OC)c3)c(C(N)=O)c2NC)C1 [Form A, (S)-1-(1-acryloylpyrrolidin-3-yl)-3-((3,5-dimethoxyphenyl)ethynyl)-5-(methylamino)-1H-pyrazole-4-carboxamide]",99.78%,99.76%,99.75%,about 0.02%,almost insoluble or insoluble,not hygroscopic,did not change,0.14%,gave Form A,"thermodynamic stability ([2]; room temperature, versus Form B and C): better thermodynamic stability; XRPD change after storage ([3]; 80° C. (closed) one day): little or no change; purity change after storage ([3]; 80° C. (closed) one day): no purity change; stability after storage ([3]; 80° C. (closed) one day): stable; Purity (%) ([3]; 80° C. for 1 day (closed)): 99.77%; thermal stability ([4]; TGA, heated to 180° C.): thermally stable"
